Experiments:
[1] = test system: MD227 human breast cancer cell lines grafted in the fat pad; test: In vivo test on tumor growth, breast cancer xenograft; conditions: DT01 2.5 mg intratumoral and 2.5 mg subcutaneous daily for 5 days; Olaparib 200 mg/kg/day per os, 5 daily sessions; or both
Experimental: Nude mice with xenografted MD227 human breast cancer cell lines grafted in the fat pad were treated by intratumoral administration of DT01 (5 mg/day) and Olaparib (200 mg/kg/day). Tumor growth was monitored (time zero: beginning of treatment). Eight to ten animals were treated per group (group 1: vehicle injection (grey line); group 2: DT01 (black dotted line); group 3: Olaparib (grey dotted line); group 4; DT01+ Olaparib (black line)). Treatment was administered 5 following days.
Human breast cancer xenograft tumors were obtained by injecting 4.10^6 tumor cells into the fat pad of adult female nude mice (Janvier, Le Genest Saint Isle, France). The animals were housed in the laboratory for at least 1 week before starting experiments. There were six animals per cage under controlled conditions of light and dark cycles (12 h: 12 h), relative humidity (55%), and temperature (21° C.). Food and tap water were available ad libitum. […] Mice were weighed every week and followed up for 280 days. For ethical reasons, the animals were sacrificed when tumors reached 1500 mm^3. The Local Committee on Ethics of Animal Experimentation approved all experiments.

[2] = test system: mutants with one repair defect (PARP1, BRCA1, BRCA2, Ku70, DNA-PKcs); test: Single treatments in isogenic pairs with DNA repair mutants; conditions: 4.80 μM AsiDNA or 0.1 μM Ola
Experimental: To determine if the efficacy of the combination of AsiDNA with Ola was not restricted to BC, the inventors analyzed the sensitivity of different cancer cell lines including glioblastoma, cervical cancer, colon cancer, blood cancer and melanoma.
(§2) Cells were grown according to the supplier's instructions. Cell lines were maintained at 37° C. in a humidified atmosphere at 5% CO2.
(§3) AsiDNA or PARPi cytotoxicity was measured by relative survival and cell death quantification. Adherent cells were seeded in 24-well culture plates at appropriate densities and incubated 24 hours at 37° C. before AsiDNA and/or PARPi addition. Cells were harvested day 6aftertreatment, stained with 0.4% trypan blue (Sigma Aldrich, Saint-Louis, USA) and counted with a Burker chamber. Cell survival was calculated as ratio of living treated cells to living mock-treated cells. Cell death was calculated as the number of dead cells on the total number of counted cells. Additivity of the toxicity was calculated by the product of cell survivals to AsiDNA and cell survivals to PARPi.

MDAMB468 = test: Cell survival, trypan blue counting; format: cell-based, human
Experimental: (§1) Cells were grown according to the supplier's instructions.

BC173 = test: Cell survival, trypan blue counting; format: cell-based, human
Experimental: as §1

HCC1187 = test: Cell survival, trypan blue counting; format: cell-based, human
Experimental: as §1

MDAMB231 = test: Cell survival, trypan blue counting; format: cell-based, human
Experimental: as §1

Jurkat = test: Cell survival, trypan blue counting; format: cell-based, human; conditions: 4.80 μM of AsiDNA and/or 0.1 μM of Ola; day 6 after treatment
Experimental: as §2, §3

HeLa BRCA2 SX = test: Cell survival, trypan blue counting; format: cell-based, human; conditions: 4.80 μM of AsiDNA and/or 0.1 μM of Ola; day 6 after treatment
Experimental: as §2, §3

IM9 = test: Cell survival, trypan blue counting; format: cell-based, human; conditions: 4.80 μM of AsiDNA and/or 0.1 μM of Ola; day 6 after treatment
Experimental: as §2, §3

HeLa PARP1 KD = test: Cell survival, trypan blue counting; format: cell-based, human; conditions: 4.80 μM of AsiDNA and/or 0.1 μM of Ola; day 6 after treatment
Experimental: as §2, §3

SK28 Lsh CTL = test: Cell survival, trypan blue counting; format: cell-based, human; conditions: 4.80 μM of AsiDNA and/or 0.1 μM of Ola; day 6 after treatment
HeLa BRCA1 SX = test: Cell survival, trypan blue counting; format: cell-based, human; conditions: 4.80 μM of AsiDNA and/or 0.1 μM of Ola; day 6 after treatment
Experimental: as §2, §3

[3] = 0.1 μM Ola, 4.8 μM AsiDNA, sensitive = difference in % dead cells higher than two-fold
[4] = 4.80 μM of AsiDNA and/or 0.1 μM of Ola, day 6 after treatment

O=C(c1cc(Cc2n[nH]c(=O)c3ccccc23)ccc1F)N1CCN(C(=O)C2CC2)CC1 [Olaparib, 4-[(3-[(4-cyclopropylcarbonyl)piperazin-4-yl]carbonyl)-4-fluorophenyl]methyl(2H)-phthalazin-1-one]
local skin toxicity or systemic toxicity [1]: No local skin toxicity or systemic toxicity
cytotoxicity of single treatments to DNA repair mutants [2]: essentially restricted to the BRCA mutants
sensitivity to treatment (MDAMB468; [3]): sensitive to both treatments
Survival (%/NT) (MDAMB468; [4]): 68.3 %/NT
sensitivity to treatment (BC173; [3]): sensitive only to AsiDNA
Survival (%/NT) (BC173; [4]): 94.4 %/NT
sensitivity to treatment (HCC1187; [3]): sensitive only to Ola
Survival (%/NT) (HCC1187; [4]): 61.5 %/NT
sensitivity to treatment (MDAMB231; [3]): resistant to both treatments
Survival (%/NT) (MDAMB231; [4]): 90.9 %/NT
IC20 (MDAMB231; Homo sapiens, MDA-MB-231, MDAMB231, PARPi dose giving 80% survival): 1000 nM
IC50 (MDAMB231; Homo sapiens, MDA-MB-231, MDAMB231, PARPi dose resulting in 50% survival): 3700 nM
Survival (%/NT) (Jurkat): 68.4 %/NT
Survival (%/NT) (HeLa BRCA2 SX): 65.0 %/NT
Survival (%/NT) (IM9): 84.6 %/NT
Survival (%/NT) (HeLa PARP1 KD): 100.5 %/NT
Survival (%/NT) (SK28 Lsh CTL): 80.6 %/NT
Survival (%/NT) (HeLa BRCA1 SX): 71.4 %/NT
